{"source": "patent US5527810A", "about": "“Decahydroisoquinoline compounds as excitatory amino acid receptor antagonists” (Eli Lilly and Company, priority 1994, dated 1996)", "key": {"CNS ischemia": {"test_system": "CNS ischemia", "conditions": "cited from earlier work"}, "focal cerebral ischemia [1]": {"test_system": "focal cerebral ischemia", "conditions": "cited from earlier work"}, "focal cerebral ischemia [2]": {"test_system": "focal cerebral ischemia", "conditions": "cited from earlier work", "remark": "listed apart in the source"}, "sound induced seizures": {"test_system": "sound induced seizures", "conditions": "DBA/2 mice; cited from earlier work"}, "NMDA receptor [3]": {"test_system": "NMDA receptor", "experiment": "Antagonism of cortical wedge depolarization induced by NMDA", "type": "cell-based, rat", "conditions": "for IC50: NMDA 40 μM, mean ± standard error (n=3)", "procedure": "(§1) The depolarization of rat cortical wedges was used to test the selectivity and potency of the formula I compounds as AMPA and NTMDA antagonists using a technique similar to that described by Harrison and Simmonds. Harrison and Simmonds, Bri. J. Pharmacol., 84, 381-391 (1984). Generally, 4-ml aliquots of NMDA (40 μM), AMPA (40 μM), and kainate (10 μM) were superfused (2 ml/min.) on the grey matter at intervals of 15-20 minutes until stable responses were attained. The tissue was then exposed for 15 minutes to various concentrations of the formula I compounds before retesting the agonists. The IC50 values were calculated from linear regression of log dose-response curves, each point the mean of at least three observations on separate slices from more than one animal."}, "AMPA receptor [4]": {"test_system": "AMPA receptor", "experiment": "Antagonism of cortical wedge depolarization induced by AMPA", "type": "cell-based, rat", "conditions": "for IC50: AMPA 40 μM, mean ± standard error (n=3)", "procedure": "as §1"}, "NMDA receptor [5]": {"target": "NMDA receptor", "experiment": "NMDA receptor radioligand binding, displacement of [3H]CGS19755 (rat forebrain synaptosomal membranes)", "procedure": "(§2) The formula I compounds were tested for their ability to inhibit NMDA, AMPA, and kainic acid receptor binding to rat membranes in a radioligand binding assay using [^3 H]CGS19755, [^3 H]AMPA, and [^3 H]KA. For all radioligand binding assays, male Sprague-Dawley rats were used. Displacement of the specific binding [^3 H]CGS19755 (10 nM) to Triton-X-treated synaptosomal membranes of rat forebrain was used to determine NMDA receptor affinity. Non-specific binding was determined using 10 μM L-glutamate. Samples were incubated in an ice-bath for 30 minutes, and bound ligand was separated from the free ligand by rapid filtration through WHATMAN GF/B glass fiber filters. Murphy et al, British J. Pharmacol., 95, 932-938 (1988). Kainate binding was performed using washed synaptosomal membranes from the rat forebrain as described by Simon et al. Simon et al, J. Neurochem., 26, 141-147 (1976). Tritiated kainate (5 nM) was added to 50 mM Tris-HCl buffer (pH 7.4 at 4° C.) containing 200-300 μg/ml of tissue protein. Samples were incubated for 30 minutes in an ice-bath, then rapidly filtered using a Brandel cell harvester and WHATS GF/C filters. Filters were washed twice with 3 ml of cold buffer. Non-specific binding was determined using 100 μM non-labeled kainate. The binding of [^3 H]AMPA (5 nM) was conducted with crude membranes of rat forebrain in the presence of 100 mM KSCN as described by Nielson et al. Nielson et al, Eur. J. Med. Chem. Chem. Ther., 21, 433-437 (1986). Non-specific binding was determined with 10 μM non-labeled AHPA. The concentration of the formula I compound that inhibited 50% binding (IC50, mean ± standard error, n=3) as calculated by linear regression of displacement data transformed to the Hill equation as described by Bennett. Bennett, Neurotransmitter Receptor Binding, 57-90 (1978)."}, "AMPA receptor [6]": {"target": "AMPA receptor", "experiment": "AMPA receptor radioligand binding, displacement of [3H]AMPA (crude membranes of rat forebrain)", "procedure": "as §2"}, "kainate (KA) receptor": {"test_system": "kainate (KA) receptor", "experiment": "Antagonism of cortical wedge depolarization induced by kainate", "type": "cell-based, rat", "conditions": "kainate 10 μM; mean ± standard error (n=3); 15 min", "procedure": "as §1"}, "kainic acid receptor": {"target": "kainic acid receptor", "experiment": "Kainate receptor radioligand binding, displacement of [3H]KA (washed synaptosomal membranes from rat forebrain)", "conditions": "[3H]kainate 5 nM, pH 7.4; mean ± standard error (n=3); 21.0 of compound 2 is a single experiment (footnote d)", "procedure": "as §2, with “The binding of [^3 H]AMPA (5 nM) was conducted with crude membranes of rat forebrain in the presence of 100 mM KSCN as described by Nielson et al. Nielson et al, Eur. J. Med. Chem. Chem. Ther., 21, 433-437 (1986).” left out, “The concentration of the formula I compound that inhibited 50% binding (IC50, mean ± standard error, n=3) as calculated by linear regression of displacement data transformed to the Hill equation as described by Bennett. Bennett, Neurotransmitter Receptor Binding, 57-90 (1978).” left out"}, "Huntington's Disease": {"test_system": "Huntington's Disease", "conditions": "in vivo; cited from earlier work"}, "global ischemia": {"test_system": "global ischemia", "conditions": "in vivo; cited from earlier work"}, "[7]": {"test_system": "global and focal ischemic damage", "conditions": "in vivo; cited from earlier work"}, "formalin model": {"test_system": "formalin model", "conditions": "cited from earlier work"}, "[8]": {"test_system": "warm water tail withdrawal", "conditions": "rhesus monkeys; cited from earlier work"}, "[9]": {"conditions": "[3H]CGS19755 10 nM, mean ± standard error (n=3), 0.96 of compound 2 is a single experiment (footnote d), read-out: IC50 NMDA (receptor binding)"}, "[10]": {"conditions": "[3H]AMPA 5 nM, 100 mM KSCN, mean ± standard error (n=3), read-out: IC50 AMPA (receptor binding)"}}, "data": [{"compound": "O=C(O)[C@H]1C[C@@H](Cc2nn[nH]n2)CCN1", "note": "(relative stereo) [LY233053]", "values": [{"measurement": "protection in CNS ischemia model in rabbits", "setting": "CNS ischemia", "value": "provided protection"}]}, {"compound": "C[C@]12N[C@H](Cc3ccccc31)c1ccccc12", "note": "[dizocilpine]", "values": [{"measurement": "protection in focal cerebral ischemia model in cats", "setting": "focal cerebral ischemia [1]", "value": "provided protection"}, {"measurement": "protection in focal cerebral ischemia model in rats", "setting": "focal cerebral ischemia [2]", "value": "provided protection"}]}, {"compound": "O=C(O)[C@H]1CN(C/C=C/P(=O)(O)O)CCN1", "note": "[D-(-)CPP-ene]", "values": [{"measurement": "protection in focal cerebral ischemia model in cats", "setting": "focal cerebral ischemia [1]", "value": "provided protection"}, {"measurement": "anticonvulsant against sound induced seizures", "setting": "sound induced seizures", "value": "anticonvulsant"}]}, {"compound": "O=C(O)[C@@H]1C[C@H]2C[C@@H](c3nn[nH]n3)CC[C@H]2CN1", "note": "[Compound 2, (3S, 4aR, 6S, 8aR)-6-(1(2)H-Tetrazole-5-yl)decahydroisoquinoline-3-carboxylic Acid]", "values": [{"measurement": "IC50", "setting": "NMDA receptor [3]", "value": "4.1 ± 0.3", "unit": "µM"}, {"measurement": "NMDA receptor antagonism", "setting": "NMDA receptor [3]; statement in words, Table II", "value": "AMPA and NMDA receptor antagonists"}, {"measurement": "IC50", "setting": "AMPA receptor [4]", "value": "13.2 ± 2.4", "unit": "µM"}, {"measurement": "AMPA receptor antagonism", "setting": "AMPA receptor [4]; statement in words, Table II", "value": "AMPA and NMDA receptor antagonists"}, {"measurement": "IC50", "setting": "NMDA receptor [5]; [9]", "value": 0.96, "unit": "µM"}, {"measurement": "IC50", "setting": "NMDA receptor [5]; text summary of Table I, read-out: IC50 for displacement of [3H]CGS19755, summary statement", "value": "< 10", "unit": "µM"}, {"measurement": "IC50", "setting": "AMPA receptor [6]; [10]", "value": "5.72 ± 0.89", "unit": "µM"}, {"measurement": "IC50", "setting": "AMPA receptor [6]; text summary of Table I, read-out: IC50 for displacement of 3H-AMPA, summary statement", "value": "< 10", "unit": "µM"}, {"measurement": "IC50 KA (cortical wedge depolarization)", "setting": "kainate (KA) receptor", "value": "> 100", "unit": "µM"}, {"measurement": "IC50 KA (receptor binding)", "setting": "kainic acid receptor", "value": 21.0, "unit": "µM"}]}, {"compound": "O=C(O)[C@@H]1C[C@H]2C[C@@H](c3nn[nH]n3)CC[C@H]2CN1", "note": "(relative stereo) [Compound 1, (3SR, 4aRS, 6SR, 8aRS)-6-(1(2)H-Tetrazole-5-yl)decahydroisoquinoline-3-carboxylic Acid]", "values": [{"measurement": "IC50", "setting": "NMDA receptor [3]", "value": "7.5 ± 0.7", "unit": "µM"}, {"measurement": "IC50", "setting": "AMPA receptor [4]", "value": "40.9 ± 5.2", "unit": "µM"}, {"measurement": "IC50", "setting": "NMDA receptor [5]; [9]", "value": "1.56 ± 0.23", "unit": "µM"}, {"measurement": "IC50", "setting": "AMPA receptor [6]; [10]", "value": "12.8 ± 0.27", "unit": "µM"}, {"measurement": "IC50 KA (cortical wedge depolarization)", "setting": "kainate (KA) receptor", "value": "> 100", "unit": "µM"}, {"measurement": "IC50 KA (receptor binding)", "setting": "kainic acid receptor", "value": "31.84 ± 2.31", "unit": "µM"}]}, {"compound": "O=C(O)[C@@H]1C[C@H]2C[C@@H](CP(=O)(O)O)CC[C@H]2CN1", "note": "(relative stereo) [LY274614]", "values": [{"measurement": "neuroprotection in animal model of Huntington's Disease", "setting": "Huntington's Disease", "value": "neuroprotective"}]}, {"compound": "C/C(=C\\C(N)C(=O)O)CP(=O)(O)O", "note": "(stereo not shown) [CGP 37849]", "values": [{"measurement": "anticonvulsant against sound induced seizures", "setting": "sound induced seizures", "value": "anticonvulsant"}]}, {"compound": "CC1=NN=C(c2ccc(N)cc2)c2cc3c(cc2C1)OCO3", "note": "[GKYI 52466]", "values": [{"measurement": "neuroprotection in rat global ischemia models", "setting": "global ischemia", "value": "effective neuroprotective agent"}]}, {"compound": "NS(=O)(=O)c1cccc2c1c([N+](=O)[O-])cc1nc(O)c(O)nc12", "note": "[NBQX, 2,3-dihydroxy-6-nitro-7-sulfamoylbenzo[f]quinoxaline]", "values": [{"measurement": "prevention of global and focal ischemic damage", "setting": "[7]", "value": "effective in preventing global and focal ischemic damage"}]}, {"compound": "NC(CCCP(=O)(O)O)C(=O)O", "note": "(racemic) [DL-AP5]", "values": [{"measurement": "analgesic in mouse formalin model", "setting": "formalin model", "value": "analgesic"}]}, {"compound": "O=C(O)[C@@H]1C[C@H](CP(=O)(O)O)CCN1", "note": "[CGS 19755]", "values": [{"measurement": "analgesic in warm water tail withdrawal procedure", "setting": "[8]", "value": "analgesic"}, {"measurement": "protection in focal cerebral ischemia model in rats", "setting": "focal cerebral ischemia [2]", "value": "provided protection"}]}]}
